Data from article PMC13233288, “Spider venom peptides Ht1a and Gg1a are toxic to honeybee parasite Varroa destructor by topical application” (npj Drug Discovery, 2026).
Entries after “also recorded” stand apart in the source; their conditions may differ. No end group written: not given here.

Tests used:
[1] = tested on: hNaV1.2/NaV1.7; assay: FLIPR Ca2+ fluorescence, veratridine-stimulated SH-SY5Y cells; format: cell-based, human; conditions: 10 µM, added 5 min prior to veratridine (50 µM)
Experimental: (§1) To further test the selectivity of sHt1a and sGg1a, we examined their activity on hNaV1.2/NaV1.7 and hCaV2.2 channels, as well as the hα3β2/4 nicotinic acetylcholine receptor (nAchR), that are endogenously expressed in the neuroblastoma cell line SH-SY5Y using a high-throughput fluorescent assay as previously described. In brief, SH-SY5Y cells were seeded at a density of 40,000 cells/well in black-walled imaging plates (Corning, Lowell, MA, USA), then incubated for 48 h at 37 °C in a 5% humidified CO2 incubator. On the day of the assay, cells were loaded with Calcium 4 No-wash dye (Molecular Devices) by reconstituting the lyophilised dye in physiological salt solution (PSS in mM: 140 NaCl, 11.5 glucose, 5.9 KCl, 1.4 MgCl2, 1.2 NaH2PO4, 5 NaHCO3, 1.8 CaCl2, 10 HEPES, pH 7.4). Cells were incubated with the dye for 30 min at 37 °C in a 5% humidified CO2 incubator. Gg1a and Ht1a (10 µM) were added 5 min prior to stimulation with either veratridine (50 µM, hNaV1.2/NaV1.7 activator), nicotine (30 µM, hα3β2/4 nAchR activator) or KCl/CaCl2 (90 mM/5 mM, CaV1.3/2.2 activator) Fluorescent responses were recorded using a FLIPR^Penta fluorescent plate reader (Molecular Devices) with excitation at 470–495 nm and emission at 515–575 nm.

[2] = tested on: honeybees; assay: Topical application of synthetic peptides to honeybees (off-target); format: in vivo, Apis mellifera; conditions: 25 μg peptide per honeybee (52-fold the mite dose) in 2% Silwet (v/v), n = 10 workers per group, 3 repeats, vs 2% Silwet control
Excerpt: If sprayed within a beehive, the varroacidal peptides would need to lethal for V. destructor, but safe for the honeybees. To evaluate potential off-target activities of the varroacidal peptides, we first needed to quantify how much larger the body surface of the bees is in comparison to the mites to understand how much more of the varroacidal peptides they would receive when being sprayed. Assuming an elliptical body shape of V. destructor, the surface area can be calculated according to the following formula: A=π×a×b×2
This also means that if we evenly applied these peptides via spraying at a certain concentration to both bees and mites, then the bees would receive a 34-fold higher peptide quantity due to their correspondingly higher surface area.
To allow for an additional safety margin, we topically applied 25 μg of each peptide per bee, which is 52-fold more than the 0.48 μg that each varroa mite received. The effects of sHt1a and sGg1a were tested on honeybees kept in plastic containers in the laboratory. The containers consisted of 250 ml polypropylene round cups with a 52 mm diameter hole cut into the bottom, covered with a 68 mm diameter circle of all-purpose cloth (brand: Peggy Perfect) hot glued to the edge of the hole on the outside of the cup (Supplementary Fig. 3). A 14 mm diameter hole was cut in the lid of the cup to insert a 5 mL syringe which served as feeder. The syringe was filled with 50% sucrose solution, and its tip was cut off to facilitate solution intake by the bees. Honeybee workers were obtained from a comb with emerging individuals placed in an incubator set to 34.5 °C and 70% humidity. The next day, groups of 10 freshly emerged workers were collected, introduced into the prepared cages and placed back in the incubator overnight. The next morning, peptide and control solutions to be tested were freshly prepared from the stock solutions stored at 4 °C. Then, the bees were sedated with CO2 gas until they stopped moving. Immediately after all bees stopped moving, the plastic lid was removed, and 15 µL of testing solution (containing 2% Silwet (v/v) or 25 μg of each peptide per bee) was topically applied on each of the 10 bees per group. The solution was applied on the abdomen or thorax, but not on the wings or head of the individuals. Following treatment, the worker bees were allowed to recover from the sedation and the containers with the bees were put back in the incubator, with mortality being manually checked daily. At the end of each experiment, all arthropods were euthanised by freezing at −20 °C.

[3] = tested on: hα3β2/4 nicotinic acetylcholine receptor (nAchR); assay: FLIPR Ca2+ fluorescence, nicotine-stimulated SH-SY5Y cells; format: cell-based, human; conditions: 10 µM, added 5 min prior to nicotine (30 µM)
Experimental: as §1

Row | Substance | effect on neuronal NaV channels [1] | effect on neuronal NaV channels ([1]; listed as sHt1a) | honeybee mortality/survival [2] | honeybee mortality/survival ([2]; listed as sHt1a) | inhibition of nicotine-mediated Ca2+ influx (α3 nAChRs) [3] | inhibition of nicotine-mediated Ca2+ influx (α3 nAChRs) ([3]; listed as sHt1a) | effect on neuronal NaV channels ([1]; listed as sGg1a) | honeybee mortality/survival ([2]; listed as sGg1a)
1 | KYCAPRKAVCNTPADCCDKSSRCAYPNYGLGYYLDSEFFGKRKICSWRL (also: bicyclic or more (positions not given here)) [Ht1a, μ-gradutoxin-Ht1a] | inactive | did not significantly affect | innocuous to honeybees | neither peptide caused more mortality; also recorded: did not alter honeybee survival | partially blocked | partial inhibition | – | –
2 | U1-macrothelitoxin-Gg1a | inactive | – | innocuous to honeybees | – | inactive | – | did not significantly affect | neither peptide caused more mortality; also recorded: did not alter honeybee survival
